Data on 15 compounds can be found in patent US6495576B2, “Aminal diones as potassium channel openers” (Abbott Laboratories, priority 2001, dated 2002).

The term melting point denotes the temperature, or range, at which the solid turns liquid. What is called Emax is the maximal effect, on the per cent scale that the assay sets.

The test system of data set [1] is primary cultured guinea-pig urinary bladder (GPB) cells. The experiment in a line: Membrane hyperpolarization (MHP) assay, DiBAC(4)3 fluorescence on FLIPR. The note with it: for Maximal Response (%P1075): maximal steady-state hyperpolarization, normalized to response with 10 μM P1075 (100%); for EC50: Cavia porcellus, concentration eliciting 50% of the maximal response of the test sample. It is filed as cell-based. As for the experimental part:
Compounds were evaluated for potassium channel opening activity using primary cultured guinea-pig urinary bladder (GPB) cells.
For the preparation of urinary bladder smooth muscle cells, urinary bladders were removed from male guinea-pigs (Hartley, Charles River, Wilmington, Mass.) weighing 300-400 g and placed in ice-cold Ca^2+-free Krebs solution (composition, mM: KCl, 2.7, KH2PO4, 1.5; NaCl, 75, Na2HPO4, 9.6; Na2HPO4. 7H2O, 8; MgSO4, 2; glucose, 5; HEPES, 10; pH 7.4). Cells were isolated by enzymatic dissociation as previously described with minor modifications (Klockner and Isenberg, Pflugers Arch. (1985), 405, 329-339), hereby incorporated by reference. The bladder was cut into small sections and incubated in 5 mL of the Kreb's solution containing 1 mg/mL collagenase (Sigma, St. Louis, Mo.) and 0.2 mg/mL pronase (Calbiochem, La Jolla, Calif.) with continuous stirring in a cell incubator for 30 minutes. The mixture was then centrifuged at 1300×g for 5 minutes, and the pellet resuspended in Dulbecco's PBS (GIBCO, Gaithersburg, Md.) and recentrifuged to remove residual enzyme. The cell pellet was resuspended in 5 mL growth media (composition: Dulbecco's modified Eagle's medium supplemented with 10% fetal bovine serum, 100 units/mL penicillin, 100 units/mL streptomycin and […] amphotericin B) and further dissociated by pipetting the suspension through a flame-polished Pasteur pipette and passing it through a polypropylene mesh membrane (Spectrum, Houston, Tex.). The cell density was adjusted to 100,000 cells/mL by resuspension in growth media Cells were plated in clear-bottomed black 96-well plates (Packard) for membrane potential studies at a density of 20,000 cells/well and maintained in a cell incubator with 90% air: 10% CO2 until confluent. Cells were confirmed to be of smooth muscle type by cytoskeletal staining using a monoclonal mouse anti human-α-smooth muscle actin (Biomeda, Foster City, Calif.).
Functional activity at potassium channels was measured by evaluating changes in membrane potential using the bis-oxonol dye DiBAC(4)3 (Molecular Probes) in a 96-well cell-based kinetic assay system, Fluorescent Imaging Plate Reader (FLIPR) (K. S. Schroeder et al., J. Biomed. Screen., v. 1 pp. 75-81 (1996)), hereby incorporated by reference. DiBAC(4)3 is an anionic potentiometric probe which partitions between cells and extracellular solution in a membrane potential-dependent manner. With increasing membrane potential (for example, K^+ depolarization), the probe further partitions into the cell; this is measured as an increase in fluorescence due to dye interaction with intracellular lipids and proteins. Conversely, decreasing membrane potential (hyperpolarization by potassium channel openers) evokes a decrease in fluorescence.
Confluent guinea-pig urinary bladder cells cultured in black clear-bottomed 96-well plates were rinsed twice with […] assay buffer (composition, mM: HEPES, 20; NaCl, 120; KCl, 2; CaCl2, 2, MgCl2, 1, glucose, 5; pH 7.4 at 25° C.) containing 5 μM DiBAC(4)3 and incubated with […] of the buffer in a cell incubator for 30 minutes at 37° C. to ensure dye distribution across the membrane. After recording the baseline fluorescence for 5 minutes, the reference or test compounds, prepared at 10 times the concentration in the assay buffer, were added directly to the wells. Changes in fluorescence were monitored for an additional 25 minutes. Hyperpolarization responses were corrected for any background noise and were normalized to the response observed with 10 μM of the reference compound P1075 (assigned as 100%), a potent opener of smooth muscle KATP channels (Quast et al., Mol. Phanmacol., v. 43 pp. 474-481 (1993)).
Routinely, five concentrations of P1075 or test compounds (log or half-log dilutions) were evaluated and the maximal steady-state hyperpolarization values (expressed as % relative to P1075) plotted as a function of concentration. […]

For data set [2], the system named is Landrace pig bladder strips. Briefly: Functional potassium channel opening activity in isolated, field-stimulated bladder strips. The settings on record: for Index: ED50 for P1075 divided by ED50 for test agonist in a given tissue, averaged; for EC50 / Emax: Sus scrofa; for EC50: amount causing 50% of the agent's maximal response, field stimulation 0.05 Hz, 0.5 ms, 20 volts, read-out: ED50 (the source's name); for Emax: maximal efficacy on stimulated twitch, relative to P1075. As for the experimental part: Compound were evaluated for functional potassium channel opening activity using tissue strips obtained from Landrace pig bladders.
Landrace pig bladders were obtained from female Landrace pigs of 9-30 kg. Landrace pig were euthanized with an intraperitoneal injection of pentobarbital solution, Somlethal ®, J. A. Webster Inc. Sterling Mass. The entire bladder was removed and immediately placed into Krebs Ringer bicarbonate solution (composition, mM: NaCl, 120; NaHCO3, 20; dextrose, 11; KCl, 4.7; CaCl2, 2.5; MgSO4, 1.5; KH2PO4, 1.2; K2EDTA, 0.01, equilibrated with 5% CO2/95% O2 pH 7.4 at 37° C.). Propranolol (0.004 mM) was included in all of the assays to block β-adrenoceptors. The trigonal and dome portions were discarded. Strips 3-5 mm wide and 20 mm long were prepared from the remaining tissue cut in a circular fashion. The mucosal layer was removed. One end was fixed to a stationary glass rod and the other to a Grass FT03 transducer at a basal preload of 1.0 gram. Two parallel platinum electrodes were included in the stationary glass rod to provide field stimulation of 0.05 Hz, 0.5 milli-seconds at 20 volts. This low frequency stimulation produced a stable twitch response of 100-500 centigrams. Tissues were allowed to equilibrate for at least 60 minutes and primed with 80 mM KCl. A control concentration response curve (cumulative) was generated for each tissue using the potassium channel opener P1075 as the control agonist. […] After a 60 minute rinsing period, a concentration response curve (cumulative) was generated for the test agonist in the same fashion as that used for control agonist P1075. The maximal efficacy of each compound (expressed as % relative to P1075) is reported. The amount of agent necessary to cause 50% of the agent's maximal response (ED50) was calculated using “ALLFIT” (DeLean et al., Am. J. Physiol., 235, E97 (1980)), hereby incorporated by reference. Agonist potencies were also expressed as an index relative to P1075. The index was calculated by dividing the ED50 for P1075 by the ED50 for the test agonist in a given tissue. Each tissue was used for only one test agonist, and the indices obtained from each tissue were averaged to provide an average index of potency.

`CC(C)(C)C(NC(=O)c1cc(F)cc(F)c1)Nc1c(Nc2cccnc2Cl)c(=O)c1=O` (single isomer, unassigned; (+)) [Example 110, (+) N-(1-{[3,4-Dioxo-2-(2-chloro3-pyridinylamino)-1-cyclobuten-1-yl]amino}-2,2-dimethylpropyl)-3,5-difluorobenzamide] had a melting point of 215 to 216 °C.
Take `Cc1ccc(C(=O)NC(Nc2c(Nc3cccnc3)c(=O)c2=O)C(C)(C)C)cc1` (centres unmarked) [Example 1, N-(1-{[3,4-Dioxo-2-(3-pyridinylamino)-1-cyclobuten-1-yl]amino}-2,2-dimethylpropyl)-4-methylbenzamide]: in data set [1], the “Maximal Response (%P1075)” value is given as 91 %P1075. Further, in data set [2], the Index came out at 0.008.
The corresponding values for `CC(C)(C)C(NC(=O)c1ccc(Cl)cc1)Nc1c(Nc2cccnc2)c(=O)c1=O` (centres unmarked) [Example 2, 4-Chloro-N-(1-{[3,4-dioxo-2-(3-pyridinylamino)-1-cyclobuten-1-yl]amino}-2,2-dimethylpropyl)benzamide] are 108 %P1075 and 0.047.
Taken in the same sequence, the figures for `C=CCC(C)(C)C(NC(=O)c1ccc(Cl)cc1)Nc1c(Nc2cccnc2)c(=O)c1=O` (centres unmarked) [Example 17, 4-Chloro-N-(-1-{[3,4-dioxo-2-(3-pyridinylamino)-1-cyclobuten-1-yl]amino}-2,2-dimethyl-4-pentenyl)benzamide] were 96 %P1075 and 0.028.
Consider `CC(C)(Cc1ccccc1)C(NC(=O)c1ccc(Cl)cc1)Nc1c(Nc2cccnc2)c(=O)c1=O` (centres unmarked) [Example 18, 4-Chloro-N-(-1-{[3,4-dioxo-2-(3-pyridinylamino)-1-cyclobuten-1-yl]amino}-2,2-dimethyl-3-phenylpropyl)benzamide], for which, in data set [1], the EC50 turned out to be 510 nM and the “Maximal Response (%P1075)” value amounted to 97 %P1075. Moreover, in data set [2], the Index amounted to 0.055, the EC50 amounted to 17000 nM and the Emax came out at 62%.
As for `CCC(CC)(CCC#N)C(NC(=O)c1ccc(Cl)cc1)Nc1c(Nc2cccnc2)c(=O)c1=O` (centres unmarked) [Example 19, 4-Chloro-N-(4-cyano-1-{[3,4-dioxo-2-(3-pyridinylamino)-1-cyclobuten-1-yl]amino}-2,2-diethylbutyl)benzamide], in data set [1], the “Maximal Response (%P1075)” value is on record as <20 %P1075.
Same read-out and setting: the figure for `C=CCOCC(CC)(COCC=C)C(NC(=O)c1ccc(Cl)cc1)Nc1c(Nc2cccnc2)c(=O)c1=O` (centres unmarked) [Example 20, N-(2,2-Bis[(allyloxy)methyl]-1-{[3,4-dioxo-2-(3-pyridinylamino)-1-cyclobuten-1-yl]amino}butyl)-4-chlorobenzamide] is 98 %P1075.
`CC(C)(C)C(NC(=O)c1ccc(I)cc1)NS(=O)(=O)Nc1cccnc1` (centres unmarked) [Example 34, N-(2,2-Dimethyl-1-{[(3-pyridinylamino)sulfonyl]amino}propyl)-4-iodobenzamide] returned a melting point of 177 to 178 °C.
Same read-out and setting: with `CC(C)(C)C(NC(=O)c1cc(Cl)cc(Cl)c1)Nc1c(Nc2cncc(C(F)(F)F)c2)c(=O)c1=O` (centres unmarked) [Example 53, 3,5-Dichloro-N-{1-[(3,4-dioxo-2-{[5-(trifluoromethyl)pyridin-3-yl]amino}-1-cyclobuten-1-yl)amino]-2,2-dimethylpropyl}benzamide] the figure was 233 to 234 °C.
In the case of `Cc1cccc(C(=O)NC(Nc2c(Nc3cccnc3)c(=O)c2=O)C(C)(C)Cc2ccccc2)c1` (centres unmarked) [Example 60, N-(1-{[3,4-Dioxo-2-(3-pyridinylamino)-1-cyclobuten-1-yl]amino}-2,2-dimethyl-3-phenylpropyl)-3-methylbenzamide], in data set [1], the EC50 turned out to be 93 nM and the “Maximal Response (%P1075)” value is on record as 83 %P1075. Moreover, in data set [2], the Index came out at 0.87, the EC50 was 680 nM and the Emax was found to be 88%.
Take `COc1ncccc1Nc1c(NC(NC(=O)c2cccc(C)c2)C(C)(C)C)c(=O)c1=O` (centres unmarked) [Example 81, N-[1-({2-[(2-Methoxypyridin-3-yl)amino]3,4-dioxo-1-cyclobuten-1-yl}amino)-2,2-dimethylpropyl]-3-methylbenzamide]: the melting point is 224 to 226 °C.
The compound `COc1ncccc1Nc1c(NC(NC(=O)c2cc(F)cc(F)c2)C(C)(C)C)c(=O)c1=O` (centres unmarked) [Example 82, 3,5-Difluoro-N-[1-({2-[(2-methoxypyridin-3-yl)amino]-3,4-dioxo-1-cyclobuten-1-yl}amino)-2,2-dimethylpropyl]benzamide] registered a melting point of 221 to 223 °C.
On the same count and under the same terms, with `COc1ncccc1Nc1c(NC(NC(=O)c2cccc(C)c2)C(C)(C)Cc2ccccc2)c(=O)c1=O` (centres unmarked) [Example 83, N-[1-({2-[(2-Methoxypyridin-3-yl)amino]-3,4-dioxo-1-cyclobuten-1-yl}amino)-2,2-dimethyl-3-phenylpropyl]-3-methylbenzamide] the figure was 233 to 235 °C; with `CC(C)(C)C(NC(=O)c1cccc(Cl)c1)Nc1c(Nc2cccnc2Cl)c(=O)c1=O` (centres unmarked) [Example 95, 3-Chloro-N-[1-({2-[(2-chloropyridin-3-yl)amino]-3,4-dioxo-1-cyclobuten-1-yl}amino)-2,2-dimethylpropyl]benzamide], 213 to 214 °C; with `CC(C)(C)C(NC(=O)c1cc(F)cc(F)c1)Nc1c(Nc2cccnc2Cl)c(=O)c1=O` (centres unmarked) [Example 110A, N-(1-{[3,4-Dioxo-2-(2-chloro3-pyridinylamino)-1-cyclobuten-1-yl]amino}-2,2-dimethylpropyl)-3,5-difluorobenzamide], 215 to 217 °C.
